Test results published in patent US20250145600A1, “2-((4-((S)-2-(4-CHLORO-2-FLUOROPHENYL)-2-METHYLBENZO[D][1,3]DIOXOL-4-YL)PIPERIDIN-1-YL)METHYL)-1-(((S)-OXETAN-2-YL)METHYL)-1H-IMIDAZOLE DERIVATIVES AS ACTIVATORS OF THE GLP1 RECEPTOR FOR THE TREATMENT OF OBESITY” (Novartis AG, priority 2022, published 2025).
pEC50: −log10 of the molar value.

Target: human GLP1R (hGLP1R) (Homo sapiens, UniProt P43220)
Experiment: Human GLP1R cAMP agonist assay (GloSensor cAMP Assay)
Assay type: cell-based
Conditions: HEK293-SNAP-hGLP1R-GloSensor cells; for Emax: cAMP activity as percent of GLP1 (7-36) EC100 control; for pEC50: intracellular cAMP, 12 min at rt
Description: Compounds of formula (I) according to the invention were tested in the following cellular assays that measure the intracellular cAMP concentration, beta-arrestin recruitment and receptor internalization. The cAMP is generated by the activation of GLP1R. The extent to which the GLP1R is internalized into the cell and away from the plasma membrane following activation is also shown in Table 2. EC50 for each assay is defined as the concentration of the compound that leads to half of the maximum response (after baseline correction). Emax is defined as the maximum response observed for the test compound, normalized to the maximum response observed for the endogenous ligand (GLP1(7-36)) to GLP1R.
Human GLP1R cAMP Agonist Assay
The agonist activity of compounds was determined using the GloSensor™ cAMP Assay (Promega Corp.), which measures changes in the intracellular concentration of cAMP after ligand activation of GPCRs. The assay uses a biosensor encoded by pGloSensor™-22F cAMP plasmid (Promega, cat #E2301) with cAMP binding domains fused to a mutant form of Photinus pyralis luciferase. Binding to cAMP causes conformational changes that promote large increases in light output, which can be measured by a luminescence detector. HEK293-SNAP-hGLP1R-GloSensor cells stably overexpressing the human GLP1 receptor (hGLP1R) and pGloSensor™-22F were seeded in white 384-well poly-D-Lysine coated plates (Greiner Bio One, cat #781945) in CO2-independent media (Gibco cat #18045-088 with 1.0% FBS, 2 mM L-glutamine, penicillin and streptomycin) and incubated overnight at 37° C., 5% CO2 with humidity. The assay was started the following morning by adding an equal volume of CO2-independent media containing 4% v/v dilution of the GloSensor substrate (Promega, cat #E1291) to all wells. The cell plate was incubated at rt for 2 h in the dark. The Biomek 7 (Beckman Coulter) instrument was used for the liquid handling steps. To generate duplicate dose response curves, 3-fold serially diluted compounds were added in to the cell assay plate to a final volume of 60 μL with final concentrations ranging from 30 μM through 0.06 μM in CO2-independent media containing 0.1% BSA, 0.5 mM IBMX and 0.4% DMSO. In the same plate and assay buffer as the tested compounds, were EC100 control wells containing GLP1 (7-36) peptide (Bachem, cat #H-6795) at a final concentration of 2 nM and also EC0 control wells containing no peptide. This plate was incubated at rt in the dark for 12 min after adding the compounds to the cells. Luminescence was then measured with an Envision 2104 Multilabel reader with “TRF Light Unit, 337 nm” (PerkinElmer) using the Ultra-Sensitive protocol setting “384-well US luminescence detector” with the 384-well luminescence aperture, 0.1 seconds per well. cAMP activity was calculated as percent of the GLP1 (7-36) EC100 control wells: [(sample signal−mean EC0 signal)/(mean EC100 of GLP1 (7-36) signal−mean EC0 signal)}*100. Curve fitting for EC50 determinations was performed in the Helios module of the software package DAVID. The 4-parameter logistic model, Hill slope was used: y=Ainf+(A0−Ainf)/(1+(x/AC50)^Hill Slope) where y is the functional response; x is the compound concentration; A0 is the minimum value (at 0 dose); Ainf is the maximum value (at infinite dose); AC50 corresponds to the point of inflection (i.e. the point on the sigmoid shaped curve halfway between A0 and Ainf). The EC50 value was represented by the AC50 value calculated from Helios in μM. Emax is the maximal activity detected within the concentration range, derived from the fitted curve.
327 μL of Opti-MEM medium (Gibco, cat #31985-062) were mixed with 12 μL of FuGENE® HD (Promega, cat #E2311) and incubated at rt for 5 min. Then 8.2 μL (4 μg, 0.485 μg/μL solution) of pSNAP-hGLP1R plasmid (Cisbio, cat #PSNAP-GLP1) encoding human GLP1R (NCBI Reference Sequence: NM_002062.3) fused with Cisbio's SNAP tag was added in to the Fugene HD/Opti-MEM mix, and incubated at rt for 20 min. […]

Chain of human GLP1R (hGLP1R) (P43220 24-463): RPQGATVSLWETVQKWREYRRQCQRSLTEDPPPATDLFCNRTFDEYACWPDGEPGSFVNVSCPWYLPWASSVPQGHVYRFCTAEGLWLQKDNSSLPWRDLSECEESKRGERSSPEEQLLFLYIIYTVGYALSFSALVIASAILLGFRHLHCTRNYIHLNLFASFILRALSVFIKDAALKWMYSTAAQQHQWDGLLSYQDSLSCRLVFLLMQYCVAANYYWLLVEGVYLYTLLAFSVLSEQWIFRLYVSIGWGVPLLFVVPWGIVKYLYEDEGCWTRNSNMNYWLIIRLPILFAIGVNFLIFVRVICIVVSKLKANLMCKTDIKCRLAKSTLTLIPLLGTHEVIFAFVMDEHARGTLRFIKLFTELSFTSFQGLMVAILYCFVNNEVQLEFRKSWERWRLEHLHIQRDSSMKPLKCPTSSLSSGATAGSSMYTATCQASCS

| Structure (SMILES) | Emax [%] | pEC50 |
| --- | --- | --- |
| Cc1nc(CN2CCC(c3cccc4c3O[C@@](C)(c3ccc(Cl)cc3F)O4)CC2)n(C[C@@H]2CCO2)c1-c1nc(C(=O)O)c(C)o1 [Compound C-1, 2-(2-((4-((S)-2-(4-chloro-2-fluorophenyl)-2-methylbenzo[d][1,3]dioxol-4-yl)piperidin-1-yl)methyl)-4-methyl-1-(((S)-oxetan-2-yl)methyl)-1H-imidazol-5-yl)-5-methyloxazole-4-carboxylic acid] | 110 | 10.25 |
| C[C@]1(c2ccc(Cl)cc2F)Oc2cccc(C3CCN(Cc4nc(C(F)(F)F)c(-c5nc(C(=O)O)co5)n4C[C@@H]4CCO4)CC3)c2O1 [Compound C-4, 2-(2-((4-((S)-2-(4-chloro-2-fluorophenyl)-2-methylbenzo[d][1,3]dioxol-4-yl)piperidin-1-yl)methyl)-1-(((S)-oxetan-2-yl)methyl)-4-(trifluoromethyl)-1H-imidazol-5-yl)oxazole-4-carboxylic acid] | 120 | 9.53 |
| CCc1nc(CN2CCC(c3cccc4c3O[C@@](C)(c3ccc(Cl)cc3F)O4)CC2)n(C[C@@H]2CCO2)c1-c1nc(C(=O)O)co1 [Compound C-5, 2-(2-((4-((S)-2-(4-chloro-2-fluorophenyl)-2-methylbenzo[d][1,3]dioxol-4-yl)piperidin-1-yl)methyl)-4-ethyl-1-(((S)-oxetan-2-yl)methyl)-1H-imidazol-5-yl)oxazole-4-carboxylic acid] | 123 | 10.38 |
| CCc1nc(CN2CCC(c3cccc4c3O[C@@](C)(c3ccc(Cl)cc3F)O4)CC2)n(C[C@H]2CCO2)c1-c1nc(C(=O)O)co1 [Compound C-7, 2-(2-((4-((S)-2-(4-chloro-2-fluorophenyl)-2-methylbenzo[d][1,3]dioxol-4-yl)piperidin-1-yl)methyl)-4-ethyl-1-(((R)-oxetan-2-yl)methyl)-1H-imidazol-5-yl)oxazole-4-carboxylic acid] | 118 | 10.45 |
| Cc1nc(CN2CCC(c3cccc4c3O[C@@](C)(c3ccc(Cl)cc3F)O4)CC2)n(C[C@@H]2CCO2)c1-c1nc(C(=O)O)co1 [Compound C-9, 2-(2-((4-((S)-2-(4-chloro-2-fluorophenyl)-2-methylbenzo[d][1,3]dioxol-4-yl)piperidin-1-yl)methyl)-4-methyl-1-(((S)-oxetan-2-yl)methyl)-1H-imidazol-5-yl)oxazole-4-carboxylic acid] | 107 | 9.99 |
| CCc1oc(-c2c(C)nc(CN3CCC(c4cccc5c4O[C@@](C)(c4ccc(Cl)cc4F)O5)CC3)n2C[C@@H]2CCO2)nc1C(=O)O [Compound C-10, 2-(2-((4-((S)-2-(4-chloro-2-fluorophenyl)-2-methylbenzo[d][1,3]dioxol-4-yl)piperidin-1-yl)methyl)-4-methyl-1-(((S)-oxetan-2-yl)methyl)-1H-imidazol-5-yl)-5-ethyloxazole-4-carboxylic acid] | 108 | 9.85 |
| Cc1oc(-c2nc(CN3CCC(c4cccc5c4O[C@@](C)(c4ccc(Cl)cc4F)O5)CC3)n(C[C@@H]3CCO3)c2C)nc1C(=O)O [Compound C-12, 2-(2-((4-((S)-2-(4-chloro-2-fluorophenyl)-2-methylbenzo[d][1,3]dioxol-4-yl)piperidin-1-yl)methyl)-5-methyl-1-(((S)-oxetan-2-yl)methyl)-1H-imidazol-4-yl)-5-methyloxazole-4-carboxylic acid] | 114 | 9.24 |
| Cc1c(-c2nc(C(=O)O)co2)nc(CN2CCC(c3cccc4c3O[C@@](C)(c3ccc(Cl)cc3F)O4)CC2)n1C[C@@H]1CCO1 [Compound C-13, 2-(2-((4-((S)-2-(4-chloro-2-fluorophenyl)-2-methylbenzo[d][1,3]dioxol-4-yl)piperidin-1-yl)methyl)-5-methyl-1-(((S)-oxetan-2-yl)methyl)-1H-imidazol-4-yl)oxazole-4-carboxylic acid] | 102 | 9.42 |
| Cc1c(-c2nc(C(F)(F)F)c(C(=O)O)o2)nc(CN2CCC(c3cccc4c3O[C@@](C)(c3ccc(Cl)cc3F)O4)CC2)n1C[C@@H]1CCO1 [Compound C-14, 2-(2-((4-((S)-2-(4-chloro-2-fluorophenyl)-2-methylbenzo[d][1,3]dioxol-4-yl)piperidin-1-yl)methyl)-5-methyl-1-(((S)-oxetan-2-yl)methyl)-1H-imidazol-4-yl)-4-(trifluoromethyl)oxazole-5-carboxylic acid] | 104 | 9.31 |
| Cc1c(-c2cnc(C(=O)O)o2)nc(CN2CCC(c3cccc4c3O[C@@](C)(c3ccc(Cl)cc3F)O4)CC2)n1C[C@@H]1CCO1 [Compound C-16, 5-(2-((4-((S)-2-(4-chloro-2-fluorophenyl)-2-methylbenzo[d][1,3]dioxol-4-yl)piperidin-1-yl)methyl)-5-methyl-1-(((S)-oxetan-2-yl)methyl)-1H-imidazol-4-yl)oxazole-2-carboxylic acid] | 108 | 9.77 |
| Cc1c(-c2cc(C(=O)O)n(C)n2)nc(CN2CCC(c3cccc4c3O[C@@](C)(c3ccc(Cl)cc3F)O4)CC2)n1C[C@@H]1CCO1 [Compound C-17, 3-(2-((4-((S)-2-(4-chloro-2-fluorophenyl)-2-methylbenzo[d][1,3]dioxol-4-yl)piperidin-1-yl)methyl)-5-methyl-1-(((S)-oxetan-2-yl)methyl)-1H-imidazol-4-yl)-1-methyl-1H-pyrazole-5-carboxylic acid] | 113 | 9.12 |
| Cc1c(-c2coc(C(=O)O)n2)nc(CN2CCC(c3cccc4c3O[C@@](C)(c3ccc(Cl)cc3F)O4)CC2)n1C[C@@H]1CCO1 [Compound C-18, 4-(2-((4-((S)-2-(4-chloro-2-fluorophenyl)-2-methylbenzo[d][1,3]dioxol-4-yl)piperidin-1-yl)methyl)-5-methyl-1-(((S)-oxetan-2-yl)methyl)-1H-imidazol-4-yl)oxazole-2-carboxylic acid] | 115 | 9.73 |
| Cc1cc(-c2nc(CN3CCC(c4cccc5c4O[C@@](C)(c4ccc(Cl)cc4F)O5)CC3)n(C[C@@H]3CCO3)c2C)oc1C(=O)O [Compound C-19, 5-(2-((4-((S)-2-(4-chloro-2-fluorophenyl)-2-methylbenzo[d][1,3]dioxol-4-yl)piperidin-1-yl)methyl)-5-methyl-1-(((S)-oxetan-2-yl)methyl)-1H-imidazol-4-yl)-3-methylfuran-2-carboxylic acid] | 109 | 9.42 |
| Cc1nc(CN2CCC(c3cccc4c3O[C@@](C)(c3ccc(Cl)cc3F)O4)CC2)n(C[C@@H]2CCO2)c1-c1coc(C(=O)O)n1 [Compound C-20, 4-(2-((4-((S)-2-(4-chloro-2-fluorophenyl)-2-methylbenzo[d][1,3]dioxol-4-yl)piperidin-1-yl)methyl)-4-methyl-1-(((S)-oxetan-2-yl)methyl)-1H-imidazol-5-yl)oxazole-2-carboxylic acid] | 112 | 9.62 |
| Cc1nc(CN2CCC(c3cccc4c3O[C@@](C)(c3ccc(Cl)cc3F)O4)CC2)n(C[C@@H]2CCO2)c1-c1cc(C(=O)O)n(C)n1 [Compound C-21, 3-(2-((4-((S)-2-(4-chloro-2-fluorophenyl)-2-methylbenzo[d][1,3]dioxol-4-yl)piperidin-1-yl)methyl)-4-methyl-1-(((S)-oxetan-2-yl)methyl)-1H-imidazol-5-yl)-1-methyl-1H-pyrazole-5-carboxylic acid] | 117 | 9.08 |
